From BindingDB's records for doi:10.7270/Q2X065P9 (Methylgene, 2012) come the findings set out here.

Several values for one entry are separate records, joined by “and”; a condition that tells them apart may be missing. Identical values can stand only once.

Sequence of Hepatocyte growth factor receptor (P08581 whole entry): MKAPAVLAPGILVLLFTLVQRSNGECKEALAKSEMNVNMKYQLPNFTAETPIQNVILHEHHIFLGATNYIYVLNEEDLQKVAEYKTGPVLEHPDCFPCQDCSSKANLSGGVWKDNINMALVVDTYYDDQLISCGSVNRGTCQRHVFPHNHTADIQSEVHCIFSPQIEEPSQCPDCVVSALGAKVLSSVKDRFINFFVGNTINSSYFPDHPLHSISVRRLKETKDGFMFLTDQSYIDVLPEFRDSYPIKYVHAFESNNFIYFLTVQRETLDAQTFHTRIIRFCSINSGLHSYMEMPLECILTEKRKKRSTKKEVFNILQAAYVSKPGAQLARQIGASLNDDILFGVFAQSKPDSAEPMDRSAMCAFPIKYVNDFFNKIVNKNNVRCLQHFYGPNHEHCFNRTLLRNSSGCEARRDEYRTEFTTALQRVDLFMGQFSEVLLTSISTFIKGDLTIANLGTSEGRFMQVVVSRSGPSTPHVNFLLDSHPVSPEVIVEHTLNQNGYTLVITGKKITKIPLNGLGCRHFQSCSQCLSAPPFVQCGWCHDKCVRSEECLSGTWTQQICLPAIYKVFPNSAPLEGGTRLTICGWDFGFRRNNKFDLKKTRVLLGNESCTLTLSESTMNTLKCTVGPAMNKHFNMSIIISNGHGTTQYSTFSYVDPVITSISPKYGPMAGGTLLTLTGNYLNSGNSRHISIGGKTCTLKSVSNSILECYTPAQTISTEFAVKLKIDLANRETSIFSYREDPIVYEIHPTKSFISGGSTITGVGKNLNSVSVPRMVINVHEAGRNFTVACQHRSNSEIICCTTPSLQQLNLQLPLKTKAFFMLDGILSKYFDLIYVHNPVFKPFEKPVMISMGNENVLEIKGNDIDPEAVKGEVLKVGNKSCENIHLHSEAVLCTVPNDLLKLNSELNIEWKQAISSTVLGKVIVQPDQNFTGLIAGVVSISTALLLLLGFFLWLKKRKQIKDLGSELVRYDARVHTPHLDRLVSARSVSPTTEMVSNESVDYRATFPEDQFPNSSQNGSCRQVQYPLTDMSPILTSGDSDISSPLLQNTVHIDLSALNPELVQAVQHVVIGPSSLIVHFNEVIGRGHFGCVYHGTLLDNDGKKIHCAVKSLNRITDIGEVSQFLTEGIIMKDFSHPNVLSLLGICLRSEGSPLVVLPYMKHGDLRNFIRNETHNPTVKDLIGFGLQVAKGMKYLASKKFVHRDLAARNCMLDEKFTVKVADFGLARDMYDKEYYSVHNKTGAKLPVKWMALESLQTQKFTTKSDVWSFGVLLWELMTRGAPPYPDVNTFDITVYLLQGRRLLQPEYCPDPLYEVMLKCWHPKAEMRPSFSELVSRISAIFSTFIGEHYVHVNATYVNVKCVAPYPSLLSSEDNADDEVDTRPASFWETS

The first experiment concerns the target Hepatocyte growth factor receptor (Homo sapiens, UniProt P08581). Kind of experiment: Inhibition Assay. From the text: (§1) Inhibition assay using kinase inhibitors.
For the molecule `O=C(Nc1cc(Oc2ccc(NC(=O)N3CCN(c4ccccc4)C3=O)cc2F)ccn1)N1CCCC1` [Oxo-3-phenylimidazolidine-1-carboxamide, 4], inhibition was half-maximal at 230 nM (IC50).
Still for that read-out and setting: with `COc1cc2nccc(Oc3ccc(NC(=O)N4CCN(c5ccccc5)C4=O)cc3F)c2cc1OC` the figure was 10 nM; with `CCn1cnc(-c2cc3nccc(Oc4ccc(NC(=O)N5CCN(c6ccccc6)C5=O)cc4F)c3s2)c1`, 10 nM; with `O=C(Nc1cc(Oc2ccc(NC(=O)N3CCN(c4ccccc4)C3=O)cc2F)ncn1)N1CCCC1` [Oxo-3-phenylimidazolidine-1-carboxamide, 3], 150 nM.
Still for that read-out and setting: with `CC(=O)Nc1cc(Oc2ccc(NC(=O)N3CCN(c4ccccc4)C3=O)cc2F)ccn1` [Oxo-3-phenylimidazolidine-1-carboxamide, 5] the figure was 310 nM and 2500 nM.

A further experiment deals with High affinity nerve growth factor receptor (Homo sapiens, UniProt P04629). Kind of experiment: Inhibition Assay.
Sequence of High affinity nerve growth factor receptor (P04629 whole entry): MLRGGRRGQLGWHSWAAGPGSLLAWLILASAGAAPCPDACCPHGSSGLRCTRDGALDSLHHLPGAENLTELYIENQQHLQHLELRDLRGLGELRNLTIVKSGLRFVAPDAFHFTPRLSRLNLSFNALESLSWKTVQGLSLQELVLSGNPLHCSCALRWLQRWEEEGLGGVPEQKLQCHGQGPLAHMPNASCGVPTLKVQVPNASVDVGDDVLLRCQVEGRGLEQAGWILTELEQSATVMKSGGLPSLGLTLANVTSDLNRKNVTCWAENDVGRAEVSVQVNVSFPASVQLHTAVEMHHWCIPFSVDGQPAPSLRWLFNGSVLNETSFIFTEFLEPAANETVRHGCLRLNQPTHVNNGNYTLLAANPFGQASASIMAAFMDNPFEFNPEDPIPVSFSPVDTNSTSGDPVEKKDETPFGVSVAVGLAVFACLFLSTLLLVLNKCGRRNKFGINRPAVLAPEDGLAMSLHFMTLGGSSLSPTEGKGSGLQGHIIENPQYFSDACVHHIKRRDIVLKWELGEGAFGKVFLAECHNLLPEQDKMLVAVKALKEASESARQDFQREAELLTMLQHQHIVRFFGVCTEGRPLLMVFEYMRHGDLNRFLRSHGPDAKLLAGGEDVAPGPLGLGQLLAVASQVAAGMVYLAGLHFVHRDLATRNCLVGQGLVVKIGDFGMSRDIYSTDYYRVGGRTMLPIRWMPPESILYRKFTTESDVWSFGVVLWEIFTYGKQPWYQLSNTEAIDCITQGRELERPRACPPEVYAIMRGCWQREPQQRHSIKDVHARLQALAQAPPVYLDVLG
Excerpt: as §1
For the molecule `CC(=O)Nc1cc(Oc2ccc(NC(=O)N3CCN(c4ccc(F)cc4)C3=O)cc2)ccn1` [2-oxoimidazolidine-1-carboxamide, 14], the half-inhibitory concentration (IC50) (in general, the concentration that gives 50% inhibition) turned out to be 3 nM.
Turning to `O=C(NCCN1CCCC1)Nc1cc(Oc2ccc(NC(=O)N3CCN(c4ccc(F)cc4)C3=O)cc2)ccn1` [2-oxoimidazolidine-1-carboxamide, 17], the IC50 stood at 4 nM.
Turning to `CC(=O)Nc1cc(Oc2ccc(NC(=O)N3CCN(c4ccccc4)C3=O)cc2)ccn1` [2-oxoimidazolidine-1-carboxamide, 5], the concentration for half-maximal inhibition (IC50) came to 4 nM.
As for `CNC(=O)Nc1cc(Oc2ccc(NC(=O)N3CCN(c4ccccc4)C3=O)cc2)ccn1` [2-oxoimidazolidine-1-carboxamide, 15], the IC50 was 5 nM.
`CNC(=O)Nc1cc(Oc2ccc(NC(=O)N3CCN(c4ccc(F)cc4)C3=O)cc2)ccn1` [2-oxoimidazolidine-1-carboxamide, 16]: 2 nM corresponded to half-maximal inhibition (IC50).
The same measure, in the same setting: with `Nc1cc(Oc2ccc(NC(=O)N3CCN(c4ccccc4)C3=O)cc2)ccn1` [2-oxoimidazolidine-1-carboxamide, 13] the figure was 20 nM.
